Data: patent US20080318954A1, “Compounds” (Cyclacel Limited, priority 2004, published 2008)

Legend:
PHK = molecular target: T1, PHK (Oryctolagus cuniculus, UniProt P00518); assay: Protein kinase panel selectivity screen, PHK; type: biochemical; details: 1 μM compound; [ATP] 20 μM
T1 construct: Dundee University (screening panel)
Description: (§1) The names of the 29 kinases comprising the selectivity screen, as well as the ATP concentrations used in each kinase case, are given in Table 5. The kinase assays were carried out as described previously.
(§2) Compound XIV at a concentration of 1 μM was screened in the 29-kinase panel (Dundee University) and the results are shown bellow in Table 6.

SAPK3/p38g = molecular target: T2, SAPK3/p38g (Homo sapiens, UniProt P53778); assay: Protein kinase panel selectivity screen, SAPK3/p38g; type: biochemical; details: 1 μM compound; [ATP] 5 μM
T2 construct: Dundee University (panel)
T2 sequence (P53778 whole entry): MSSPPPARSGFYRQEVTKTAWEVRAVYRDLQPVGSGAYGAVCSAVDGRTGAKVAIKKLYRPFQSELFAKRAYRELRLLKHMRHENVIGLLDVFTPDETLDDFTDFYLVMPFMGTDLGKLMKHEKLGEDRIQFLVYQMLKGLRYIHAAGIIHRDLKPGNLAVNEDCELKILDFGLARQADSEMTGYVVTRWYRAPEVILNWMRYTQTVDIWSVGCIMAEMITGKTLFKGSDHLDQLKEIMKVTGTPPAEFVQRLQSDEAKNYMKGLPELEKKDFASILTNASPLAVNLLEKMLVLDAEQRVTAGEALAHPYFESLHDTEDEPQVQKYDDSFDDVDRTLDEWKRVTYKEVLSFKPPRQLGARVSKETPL
Description: as §1, §2

CDK7/cyclin H = molecular target: T3, CDK7/cyclin H (Homo sapiens, UniProt P50613); assay: CDK7/cyclin H inhibition constant; type: biochemical
T3 construct: His6 (N); made in house; host or cells: Sf9 insect cells (baculovirus)
T3 sequence (P50613 whole entry, species assumed): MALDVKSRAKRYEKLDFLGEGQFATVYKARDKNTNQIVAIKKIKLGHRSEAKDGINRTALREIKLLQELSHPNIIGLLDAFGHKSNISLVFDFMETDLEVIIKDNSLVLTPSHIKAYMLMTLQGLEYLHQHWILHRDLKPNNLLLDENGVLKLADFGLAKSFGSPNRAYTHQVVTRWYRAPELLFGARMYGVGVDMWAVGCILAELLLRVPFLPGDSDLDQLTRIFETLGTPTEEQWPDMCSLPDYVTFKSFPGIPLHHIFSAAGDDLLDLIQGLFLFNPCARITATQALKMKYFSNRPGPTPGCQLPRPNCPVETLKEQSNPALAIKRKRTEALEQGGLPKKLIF
T3 sequence (P51946 whole entry partner, species assumed): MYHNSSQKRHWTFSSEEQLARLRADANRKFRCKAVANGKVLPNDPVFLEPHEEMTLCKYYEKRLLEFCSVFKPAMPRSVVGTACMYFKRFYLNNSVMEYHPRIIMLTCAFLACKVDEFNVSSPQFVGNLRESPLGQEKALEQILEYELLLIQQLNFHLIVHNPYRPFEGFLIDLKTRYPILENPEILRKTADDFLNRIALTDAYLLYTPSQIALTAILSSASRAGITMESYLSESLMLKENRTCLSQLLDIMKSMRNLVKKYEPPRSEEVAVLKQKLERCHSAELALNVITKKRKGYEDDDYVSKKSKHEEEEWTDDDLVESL
Description: CDK4/cyclin D1, CDK1/cyclin B, CDK2/cyclin E, CDK2/cyclin A, CDK9/cyclin T1 and CDK7/cyclin H, all with a His6 tag on the N-terminus, were expressed in Sf9 insect cells using an appropriate baculovirus construct. Sf9 culture (1.6×10^6 cells/mL) was infected (MOI of 3) for two days. The cells were harvested by low speed centrifugation and the protein was purified from the insect cell pellet by metal affinity chromatography. In short: the insect cell pellet was lysed in Buffer A (10 mM Tris-HCl pH 8.0, 150 mM NaCl, 0.02% NP-40, 5 mM β-mercaptoethanol, 20 mM NaF, 1 mM Na3VO4, and Sigma Protease Inhibitor Cocktail) by sonication. The soluble fraction was cleared by centrifugation and loaded onto Ni-NTA-Agarose (Qiagen). Non-bound protein was washed off with 300 mM NaCl, 5-15 mM imidazole in buffer A and the bound protein was eluted with buffer A supplemented with 250 mM imidazole. The purified proteins were extensively dialyzed against storage buffer (20 mM HEPES pH 7.4, 50 mM NaCl, 2 mM DTT, 1 mM EDTA, 1 mM EGTA, 0.02% NP-40, 10% v/v glycerol) and stored at −70° C.
Intrinsic inhibition constants (Ki) for example compound XIV against a number of Ser/Thr kinases were determined and are summarized in Table 3.

[1] = system: β-catenin-LEF/TCF transcriptional activity in HEK293 cells; assay: β-Catenin-LEF/TCF regulated reporter gene assay; type: cell-based, human; details: up to 10 μM
Excerpt: Furthermore, the effect of compound XIV on the β-catenin-dependent transcriptional activity, as measured in a luciferase based reporter gene assay, was studied.
HEK293 cells were transfected with either β-catenin-LEF/TCF-sensitive or β-catenin-LEF/TCF-insensitive reporter vector (Upstate Biotechnology, Inc.) using Lipofectamine Plus reagent (GibcoBRL) according to the manufacturer's instructions. The next day, cells were trypsinized, washed into serum-free medium, counted and seeded at 40,000 cells per well in a 96-well plate. Subsequent to cell attachment, LiCl or GSK-3 inhibitor compound were added to the medium to the required concentrations. Control cells were DMSO vehicle treated. 16 h after inhibitor addition, cells were analyzed for luciferase activity using the Steady-Glo Luciferase assay system (Promega) according to the manufacturer's instructions.

SAPK2b/p38b2 = molecular target: T4, SAPK2b/p38b2 (Homo sapiens, UniProt Q15759); assay: Protein kinase panel selectivity screen, SAPK2b/p38b2; type: biochemical; details: 1 μM compound; [ATP] 20 μM
T4 construct: Dundee University (panel)
T4 sequence (Q15759 whole entry): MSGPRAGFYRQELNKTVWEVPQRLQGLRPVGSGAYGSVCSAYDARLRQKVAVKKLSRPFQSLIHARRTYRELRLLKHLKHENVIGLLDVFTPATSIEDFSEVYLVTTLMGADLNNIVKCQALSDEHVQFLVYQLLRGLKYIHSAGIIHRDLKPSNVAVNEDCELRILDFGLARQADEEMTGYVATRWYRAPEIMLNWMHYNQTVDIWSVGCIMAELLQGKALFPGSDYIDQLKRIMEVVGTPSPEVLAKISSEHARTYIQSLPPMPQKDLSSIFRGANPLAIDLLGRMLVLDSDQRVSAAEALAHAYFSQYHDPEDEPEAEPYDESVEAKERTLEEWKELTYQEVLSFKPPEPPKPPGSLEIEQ
Description: as §1, §2

[2] = system: glycogen synthase activity in 3T3 mouse adipocytes; assay: Glycogen synthase (GS) assay in 3T3 mouse adipocytes; type: cell-based
Description: Mouse pre-adipocytes 3T3-F442A were seeded at 9×10^5 cells per 10 cm dish in DMEM 10% FCS, containing penicillin/streptomycin. When 90% confluent, the same medium was supplemented with 1 μg/mL insulin. After 3-5 days (when most cells were differentiated) insulin was removed and 4 days later the cells were ready to use.
Cells on 10 cm dishes (Human Embryonic Kidney (HEK) 293 cells, L6 rat myocytes, or 3T3 mouse adipocytes) were treated with different concentrations of GSK3-inhibitors or DMSO vehicle for 90 min. Incubation medium was removed and cells were washed with ice-cold phosphate-buffered saline (PBS) prior to lysis on ice in 50 mM HEPES, pH 7.5, 10 mM EDTA, 100 mM NaF, 5 mM DTT, protease inhibitor cocktail (Sigma). After a freeze/thaw cycle the samples are sonicated for 10 sec and centrifuged at 15,000 g for 10 min at 4° C. Lysate supernatants were snap-frozen on liquid nitrogen and stored at −80° C. Lysates were assayed for glycogen synthase activity in buffer (50 mM Tris-HCl, pH 7.8, 20 mM EDTA, 25 mM NaF, 5 mM DTT, 1% glycogen, 0.3 mM UDP-glucose and 0.06 μCi of [^14C]-UDP-glucose in the presence of 0.1 or 10 mM glucose-6-phosphate. The reaction was carried out for 30 min at 30° C. 70 μL of the reaction mixture (total volume 90 μL) were transferred to a GFC 96-well filter plate (bottom sealed with foil), containing 140 μL 96% ethanol. The GFC plate was incubated for 1 h on ice and than washed with 66% ethanol. To each well 100 μL scintillant liquid was added and the radioactivity of the samples was measured using a scintillation counter (Topcount, HP). Data are expressed as -fold increase in glycogen synthase activity ratios over those of control samples.

`Clc1ccc(Nc2nccc(-c3nccs3)n2)cn1` [Compound XIV, (6-Chloro-pyridin-3-yl)-(4-thiazol-2-yl-pyrimidin-2-yl)-amine] showed an activity at 1 µM (PHK) of 120 ± 7%, an activity at 1 µM (SAPK3/p38g) of 88 ± 3% and a Ki (CDK7/cyclin H) greater than 50 µM. The “Fold selectivity for GSK3 over CDK7/cyclin H” value (CDK7/cyclin H; from Ki) was >3,125 fold, the “β-catenin transcriptional activity (luciferase reporter)” value [1] was “No induction” and the activity at 1 µM (SAPK2b/p38b2) was 92 ± 4%. The “Activation of GS relative to that induced by 40 mM LiCl” value ([2]; 3T3 adipocytes, 5 μM) was “approximately 2 fold”, the EC50 ([2]; Mus musculus, Adipocyte, 3T3 adipocytes, from dose-response curves, read-out: EC50 activation of glycogen synthase) was 5 ± 2.3 µM and the fold induction at 0.2 µM ([2]; Mus musculus, NIH3T3, 3T3 cells, 0.2 μM) was 1.1. It also gave a fold induction at 1 µM ([2]; Mus musculus, NIH3T3, 3T3 cells, 1 μM) of 2.5, a fold induction at 5 µM ([2]; Mus musculus, NIH3T3, 3T3 cells, 5 μM) of 3.7 and a fold induction at 10 µM ([2]; Mus musculus, NIH3T3, 3T3 cells, 10 μM) of 4.8. For the same compound, the “Activity of glycogen synthase (fractional velocity)” value ([2]; mouse adipocyte cells, ratio of activity at 0.1 and 10 mM glucose-6-phosphate) was “increased the activity of glycogen synthase”.
